Reference: patent US8822377B2, “Herbicidal compositions comprising topramezone and pinoxaden” (BASF SE, priority 2011, dated 2014)

Key:
[1] = system: HORVW (winter barley) Highlight; test: Greenhouse post-emergence crop damage rating, winter barley; details: topramezone 12 g a.i./ha
Protocol: (§1) The culture containers used were plastic pots containing loamy sand with approximately 3.0% of humus as substrate. The seeds of the test plants were sown separately for each species.
(§2) In all use examples, plants were grown in a greenhouse environment.
(§3) To this end, the test plants were either sown directly and grown in the same containers, or they were first grown separately as seedlings and transplanted into the test containers a few days prior to treatment.
(§4) Depending on the species, the plants were kept at 10-25° C. and 20-35° C., respectively. The test period extended over 1 to 4 weeks. During this time, the plants were tended and their response to the individual treatments was evaluated.
(§5) Topramezone was used as a commercial suspension concentrate (Clio® of BASF SE) having an active ingredient concentration of 336 g/l.
(§6) The evaluation for the damage caused by the chemical compositions was carried out using a scale from 0 to 100%, compared to the untreated control plants. Here, 0 means no damage and 100 means complete destruction of the plants.

TRZAS Taifun = test: Greenhouse post-emergence crop damage rating, wheat TRZAS; details: topramezone 12 g a.i./ha
Protocol: as §1, §2, §3, §4, §5, §6

VERPE (field speedwell) = test: Greenhouse post-emergence herbicidal activity against field speedwell; assay type: in vivo; details: Veronica persica, 648 h, topramezone 12 g a.i./ha, read-out: Herbicidal activity (%) at 27 DAT Observed VERPE GS22
From the text: (§7) The test period extended over 1 to 4 weeks.
(§8) 22 ff. E=X+Y−(X·Y/100) where • X=effect in percent using herbicide A at an application rate a; • Y=effect in percent using pinoxaden (herbicide B) at application rate b or a combination of pinoxaden and safener C at application rates b and c; • E=expected effect (in %) of A+B at application rates a+b or of A+B+C at application rates a+b+c.
(§9) The value E corresponds to the effect (plant damage or injury) which is to be expected if the activity of the individual compounds is just additive. If the observed effect is higher than the value E calculated according to Colby, a synergistic effect is present.

GALAP (cleaver) = test: Greenhouse post-emergence herbicidal activity against cleaver; assay type: in vivo; details: Galium aparine, 648 h, topramezone 12 g a.i./ha, read-out: Herbicidal activity (%) at 27 DAT Observed GALAP GS22
From the text: as §7, §8, §9

[2] = system: TRZAW (winter wheat) Cubus; test: Greenhouse post-emergence crop damage rating, winter wheat; details: topramezone 12 g a.i./ha, 0=no damage, 100=complete destruction
Protocol: as §1, §2, §3, §4, §5, §6

In the case of Cc1c(C(=O)c2cnn(C)c2O)ccc(S(C)(=O)=O)c1C1=NOCC1 [Topramezone, [3-(4,5-dihydro-1,2-oxazol-3-yl)-4-mesyl-o-tolyl](5-hydroxy-1-methylpyrazol-4-yl)methanone], the “Herbicidal activity (%) at 27 DAT HORVW Highlight GS11” value [1] is reported as 20%, the “Herbicidal activity (%) at 27 DAT TRZAS Taifun GS11” value (TRZAS Taifun) is reported as 30% and the inhibition at 12 g/ha (VERPE (field speedwell)) is reported as 75%. The inhibition at 12 g/ha (GALAP (cleaver)) was 90% and the “Herbicidal activity (%) at 27 DAT TRZAW Cubus GS12” value [2] was 20%.
